Counter-ions that a name gives are not always drawn.

Chain of isolated kinase domain of the human c-kit receptor (P10721 589-937): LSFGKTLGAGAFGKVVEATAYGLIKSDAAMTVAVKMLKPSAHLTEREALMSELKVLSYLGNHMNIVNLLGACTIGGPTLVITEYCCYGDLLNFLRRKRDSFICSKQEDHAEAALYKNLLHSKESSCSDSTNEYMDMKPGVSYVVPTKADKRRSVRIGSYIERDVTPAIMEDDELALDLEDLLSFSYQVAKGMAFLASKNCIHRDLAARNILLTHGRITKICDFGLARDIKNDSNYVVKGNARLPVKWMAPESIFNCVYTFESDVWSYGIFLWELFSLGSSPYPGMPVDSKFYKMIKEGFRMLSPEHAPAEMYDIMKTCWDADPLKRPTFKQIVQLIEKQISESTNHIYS

In the first test the test system is BR-1 cells. Put plainly: c-Kit BR-1 Assay (inhibition of BR-1 cell proliferation). It counts as cell-based. Conditions: Canis lupus familiaris; BR-1 dog mastocytoma line, constitutive-active mutant KIT; 72 hours, Cell TiterGlo. Background: Cellular ATP, detected with luciferase, serves as a proxy for viable cell number.
Procedure: Immediately following plating (time zero), 6 wells containing cells are treated with 100 μl of Promega Cell TiterGlo reagent and incubated 10 min with shaking. The intensity of the Cell TiterGlo signal (1 sec/well) is determined using a luminometer. The remaining cells are cultured 72 hours (37° C. and 5% CO2). Following the 72-hour growth interval, 100 μl of Promega Cell TiterGlo reagent is added to each well. The plates are incubated an additional 10 minutes with shaking and the intensity of the Cell TiterGlo signal (1 sec/well) is determined using a luminometer. Cell proliferation is defined by the difference between the time zero and time 72 hour signals.
Take `CN(C)CC(=O)N1CCC(c2ccc(NC(=O)c3nc(C#N)c[nH]3)c(C3=CCC(C)(C)CC3)n2)CC1` [Compound 55, 4-Cyano-1H-imidazole-2-carboxylic acid [1′-(2-dimethylamino-acetyl)-6-(4,4-dimethyl-cyclohex-1-enyl)-1′,2′,3′,4′,5′,6′-hexahydro-[2,4′]bipyridinyl-5-yl]-amide trifluoroacetic acid salt]: the IC50 amounted to 250 nM.
`CN(C)CC(=O)N1CCC(c2ccc(NC(=O)c3nc(C#N)c[nH]3)c(C3=CCCCC3)c2)CC1` [Compound 38, 4-Cyano-1H-imidazole-2-carboxylic acid{2-cyclohex-1-enyl-4-[1-(2-dimethylamino-acetyl)-piperidin-4-yl]-phenyl}-amide] gave an IC50 of 90 nM.
Still for that read-out and setting: for `CC1(C)CC=C(c2nc(C3CCN(CCS(C)(=O)=O)CC3)ccc2NC(=O)c2nc(C#N)c[nH]2)CC1` [Compound 56, 4-Cyano-1H-imidazole-2-carboxylic acid [6-(4,4-dimethyl-cyclohex-1-enyl)-1′-(2-methanesulfonyl-ethyl)-1′,2′,3′,4′,5′,6′-hexhydro-[2,4′]bipyridinyl-5-yl]-amide trifluoroacetic acid salt] the value was 500 nM; for `CC1(C)CC=C(c2nc(C3CCNCC3)ccc2NC(=O)c2nc(C#N)c[nH]2)CC1` [Compound 54, 4-Cyano-1H-imidazole-2-carboxylic acid [6-(4,4-dimethyl-cyclohex-1-enyl)-1′,2′,3′,4′,5′,6′-hexahydro-[2,4′]bipyridinyl-5-yl]-amide trifluoroacetic acid salt], 900 nM; for `CS(=O)(=O)CCN1CCC(c2ccc(NC(=O)c3nc(C#N)c[nH]3)c(C3=CCCCC3)c2)CC1` [Compound 40, 4-Cyano-1H-imidazole-2-carboxylic acid{2-cyclohex-1-enyl-4-[1-(2-methanesulfonyl-ethyl)-piperidin-4-yl]-phenyl}-amide], 250 nM.
The molecule `CS(=O)(=O)CCN1CCC(c2ccc(NC(=O)c3ncc(C#N)[nH]3)c(C3=CCCCC3)n2)CC1` [Compound 58, 5-Cyano-1H-imidazole-2-carboxylic acid [6-cyclohex-1-enyl-1′-(2-methanesulfonyl-ethyl)-1′,2′,3′,4′,5′,6′-hexahydro-[2,4′]bipyridinyl-5-yl]-amide] displayed a 50% inhibitory concentration (IC50) of 1000 nM.

The next test has as its target isolated kinase domain of the human c-kit receptor (Homo sapiens (Human), UniProt P10721). Put plainly: c-Kit Fluorescence Polarization Kinase Assay. It counts as biochemical. The conditions noted are these: 1 nM c-kit, 50 uM ATP, 45 minutes at room temperature; uncertainty +10%. Here is the method:
c-Kit Fluorescence Polarization Kinase Assay
The c-kit assay utilized the fluorescein-labeled phosphopeptide and the anti-phosphotyrosine antibody included in the Panvera Phospho-Tyrosine Kinase Kit (Green) supplied by Invitrogen. When c-kit phosphorylated the poly Glu4Tyr, the fluorescein-labeled phosphopeptide was displaced from the anti-phosphotyrosine antibody by the phosphorylated poly Glu4Tyr, thus decreasing the FP value. The c-kit kinase reaction was incubated at room temperature for 45 minutes under the following conditions: 1 nM c-kit (ProQinase, lot SP005), 100 ug/mL poly Glu4Tyr, 50 uM ATP, 5 mM MgCl2, 1 mM DTT, 0.01% Tween-20, 1% DMSO or compound in […], pH 7.5. The kinase reaction was stopped with the addition of EDTA. The fluorescein-labeled phosphopeptide and the anti-phosphotyrosine antibody were added and incubated for 30 minutes at room temperature and fluorescence polarization was read. Data points were an average of triplicate samples. Inhibition and IC50 data analysis were done with GraphPad Prism using a non-linear regression fit with a multiparamater, sigmoidal dose-response (variable slope) equation.
In turn, `CN1CCN(c2ccc(NC(=O)c3ccc(C#N)o3)c(C3=CCOCC3)c2)CC1` [Compound 12] returned a half-maximal inhibitory concentration (IC50) of more than 250 nM.
The same measure, in the same setting: for `N#Cc1c[nH]c(C(=O)Nc2ccc(C3CCN(C(=O)CCN4CCOCC4)CC3)cc2C2=CCCCC2)n1` [Compound 8, 4-Cyano-1H-imidazole-2-carboxylic acid{2-cyclohex-1-enyl-4-[1-(3-morpholin-4-yl-propionyl)-piperidin-4-yl]-phenyl}-amide] the value was 42 nM; for `N#Cc1cnc(C(=O)Nc2ccc(C3CCN(C(=O)[C@H](O)CO)CC3)cc2C2=CCCCC2)[nH]1` [Compound 52, 5-Cyano-1H-imidazole-2-carboxylic acid{2-cyclohex-1-enyl-4-[1-(R)-(+)-(2,3-dihydroxy-propionyl)-piperidin-4-yl]-phenyl}-amide], 8 nM.
Molecule `CN(C)CC(=O)N1CCC(c2ccc(NC(=O)c3nc(C#N)c[nH]3)c(C3=CCC(C)(C)CC3)n2)CC1` [Compound 55, 4-Cyano-1H-imidazole-2-carboxylic acid [1′-(2-dimethylamino-acetyl)-6-(4,4-dimethyl-cyclohex-1-enyl)-1′,2′,3′,4′,5′,6′-hexahydro-[2,4′]bipyridinyl-5-yl]-amide trifluoroacetic acid salt] registered an IC50 of 12 nM.
The same measure, in the same setting: next, `N#Cc1c[nH]c(C(=O)Nc2ccc(C3CCN(C(=O)c4cc[n+]([O-])cc4)CC3)cc2C2=CCCCC2)n1` [Compound 41, 4-Cyano-1H-imidazole-2-carboxylic acid {2-cyclohex-1-enyl-4-[1-(1-oxy-pyridine-4-carbonyl)-piperidin-4-yl]-phenyl}-amide]: 35 nM.
With `N#Cc1c[nH]c(C(=O)Nc2ccc(C3CCNCC3)cc2C2=CCCCC2)n1` [Compound 14, 4-Cyano-1H-imidazole-2-carboxylic acid (2-cyclohex-1-enyl-4-piperidin-4-yl-phenyl)-amide trifluoroacetic acid salt], the 50% inhibitory concentration (IC50) is 71 nM.
Same read-out and setting: next, `N#Cc1c[nH]c(C(=O)Nc2ccc(C3CCN(CC(=O)O)CC3)cc2C2=CCCCC2)n1` [Compound 47, (4-{4-[(4-Cyano-1H-imidazole-2-carbonyl)-amino]-3-cyclohex-1-enyl-phenyl}-piperidin-1-yl)-acetic acid trifluoroacetic acid salt]: 100 nM; `CC(=O)N1CCC(c2ccc(NC(=O)c3nc(C#N)c[nH]3)c(C3=CCS(=O)(=O)CC3)c2)CC1` [Compound 37, 4-Cyano-1H-imidazole-2-carboxylic acid [4-(1-acetyl-piperidin-4-yl)-2-(1,1-dioxo-1,2,3,6-tetrahydro-1λ^6-thiopyran-4-yl)-phenyl]-amide]: more than 250 nM.
Still for that read-out and setting: for `N#Cc1c[nH]c(C(=O)Nc2ccc(C3CCN(CCO)CC3)cc2C2=CCCCC2)n1` [Compound 26, 4-Cyano-1H-imidazole-2-carboxylic acid{2-cyclohex-1-enyl-4-[1-(2-hydroxy-ethyl)-piperidin-4-yl]-phenyl}-amide trifluoroacetic acid salt] the value was 26 nM; for `N#CCCN1CCC(c2ccc(NC(=O)c3nc(C#N)c[nH]3)c(C3=CCCCC3)c2)CC1` [Compound 27, 4-Cyano-1H-imidazole-2-carboxylic acid {4-[1-(2-cyano-ethyl)-piperidin-4-yl]-2-cyclohex-1-enyl-phenyl}-amide trifluoroacetic acid salt], 80 nM; for `N#Cc1c[nH]c(C(=O)Nc2ccc(C3CCN(Cc4ccccn4)CC3)cc2C2=CCCCC2)n1` [Compound 21, 4-Cyano-1H-imidazole-2-carboxylic acid [2-cyclohex-1-enyl-4-(1-pyridin-2-ylmethyl-piperidin-4-yl)-phenyl]-amide trifluoroacetic acid salt], 50 nM.
Same read-out and setting: next, `N#Cc1c[nH]c(C(=O)Nc2ccc(C3CCS(=O)(=O)CC3)cc2C2=CCCCC2)n1` [Compound 35, 4-Cyano-1H-imidazole-2-carboxylic acid [2-cyclohex-1-enyl-4-(1,1-dioxo-hexahydro-1λ^6-thiopyran-4-yl)-phenyl]-amide]: 73 nM.
Molecule `CC1(C)CC=C(c2nc(C3CCN(CCS(C)(=O)=O)CC3)ccc2NC(=O)c2nc(C#N)c[nH]2)CC1` [Compound 56, 4-Cyano-1H-imidazole-2-carboxylic acid [6-(4,4-dimethyl-cyclohex-1-enyl)-1′-(2-methanesulfonyl-ethyl)-1′,2′,3′,4′,5′,6′-hexhydro-[2,4′]bipyridinyl-5-yl]-amide trifluoroacetic acid salt] displayed an IC50 of 39 nM.
On to `N#Cc1c[nH]c(C(=O)Nc2ccc(C3CCNCC3)cc2C2=CCCCC2)c1` [Compound 13, 4-Cyano-1H-pyrrole-2-carboxylic acid (2-cyclohex-1-enyl-4-piperidin-4-yl-phenyl)-amide trifluoroacetic acid salt], for which the IC50 is 260 nM.
On the same count and under the same terms, for `CN1CCN(c2ccc(NC(=O)c3ccc(C#N)o3)c(C3=CCCCC3)c2)CC1` [Compound 11, 5-Cyano-furan-2-carboxylic acid [2-cyclohex-1-enyl-4-(4-methyl-piperazin-1-yl)-phenyl]-amide] the value was 150 nM; for `CC(C)(N)CC(=O)N1CCC(c2ccc(NC(=O)c3nc(C#N)c[nH]3)c(C3=CCCCC3)c2)CC1` [Compound 48, 4-Cyano-1H-imidazole-2-carboxylic acid {4-[1-(3-amino-3-methyl-butyryl)-piperidin-4-yl]-2-cyclohex-1-enyl-phenyl}-amide trifluoroacetic acid salt], 5 nM; for `CC(=O)N1CCC(c2ccc(NC(=O)c3nc(C#N)c[nH]3)c(C3=CCCCC3)c2)CC1` [Compound 16, 4-Cyano-1H-imidazole-2-carboxylic acid [4-(1-acetyl-piperidin-4-yl)-2-cyclohex-1-enyl-phenyl]-amide], 57 nM.
Take `C[C@@H]1CC(c2ccc(NC(=O)c3ncc(C#N)[nH]3)c(C3=CCCCC3)c2)C[C@H](C)N1` (stereo partly drawn) [Compound 51a, 5-Cyano-1H-imidazole-2-carboxylic acid [2-cyclohex-1-enyl-4-(cis-2,6-dimethyl-piperidin-4-yl)-phenyl]-amide bis trifluoroacetic acid salt]: the concentration for half-maximal inhibition (IC50) came to 4.3 nM.

For orientation: IC50 means the concentration that gives 50% inhibition.

These data come from patent publication US8697716B2, “Method of inhibiting C-KIT kinase” (Janssen Pharmaceutica NV, priority 2006, dated 2014).
